Reference: patent publication US11566007B2, “Ras inhibitors” (Revolution Medicines, Inc., priority 2019, dated 2023)

Assays:
NRAS WT = NRAS WT (Homo sapiens (Human), UniProt P01111+P62937); test: Ras-Raf (BRAF RBD) disruption / FRET / MOA assay, NRAS WT; format: biochemical; conditions: read-out: IC50* NRAS WT FRET data
Outline: (§1)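 Compounds were tested as a 10-point 3-fold dilution series from 30 μM final for their ability to drive ternary complex formation between nucleotide-loaded Ras and cyclophilin A, displacing the BRAF RBD. After 3 h at 25° C., anti-His Eu-W1024 (10 nM) and anti-GST allophycocyanin (50 nM) were added for 1.5 h. A TR-FRET ratio decrease versus DMSO gave IC50.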

[1] = tested on: NCI-H358 cells (K-Ras G12C); test: Potency assay: pERK in NCI-H358 cells; format: cell-based, human; conditions: Homo sapiens, NCI-H358; H358 KRAS G12C; read-out: pERK EC50
Outline: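 4 h cpd, 37 °C; 10-pt 3-fold series, 10 mM DMSO top stock, duplicates. Readout pERK: AlphaLISA SureFire Ultra or In-Cell Western (IR-800CW secondary, DRAQ5 DNA stain). IC50, 4-PL fit vs log conc.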

NRAS Q61R = NRAS Q61R (Homo sapiens (Human), UniProt P01111+P62937, Q61R); test: Ras-Raf (BRAF RBD) disruption / FRET / MOA assay, NRAS Q61R; format: biochemical; conditions: NRAS Q61R; Ras-Raf disruption/FRET/MOA assay; read-out: IC50* NRAS Q61R FRET data
Outline: as §1

K-Ras G12C = K-Ras G12C (Homo sapiens (Human), UniProt P01116+P62937, G12C); test: Ras-Raf (BRAF RBD) disruption / FRET / MOA assay, KRAS G12C; format: biochemical; conditions: KRAS G12C; Ras-Raf disruption/FRET/MOA assay; read-out: IC50* KRAS G12C FRET data
Outline: (§2)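 Ternary complex formation (Ras–compound–cyclophilin A) displacing BRAF RBD, monitored by TR-FRET. Three hours at 25° C with compound (top 30 μM final), then 1.5 h with the labelled antibodies. Lower ratio than DMSO indicates disruption; IC50 reported.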

K-Ras G13C = K-Ras G13C (Homo sapiens (Human), UniProt P01116+P62937, G13C); test: Ras-Raf (BRAF RBD) disruption / FRET / MOA assay, KRAS G13C; format: biochemical; conditions: KRAS G13C; Ras-Raf disruption/FRET/MOA assay; read-out: IC50* KRAS G13C FRET data
Outline: as §2

KRAS Q61H = KRAS Q61H (Homo sapiens (Human), UniProt P01116+P62937, Q61H); test: Ras-Raf (BRAF RBD) disruption / FRET / MOA assay, KRAS Q61H; format: biochemical; conditions: Ras-Raf disruption/FRET/MOA assay; class symbols; read-out: KRAS Q61H FRET data IC50
Outline: as §1

Chain of NRAS Q61R (P01111 whole entry Q61R): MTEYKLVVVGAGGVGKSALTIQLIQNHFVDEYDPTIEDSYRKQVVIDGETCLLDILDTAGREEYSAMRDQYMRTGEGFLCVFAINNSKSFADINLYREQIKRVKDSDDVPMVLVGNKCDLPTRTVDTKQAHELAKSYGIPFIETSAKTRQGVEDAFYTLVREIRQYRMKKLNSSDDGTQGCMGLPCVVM
Chain of NRAS Q61R (P62937 whole entry): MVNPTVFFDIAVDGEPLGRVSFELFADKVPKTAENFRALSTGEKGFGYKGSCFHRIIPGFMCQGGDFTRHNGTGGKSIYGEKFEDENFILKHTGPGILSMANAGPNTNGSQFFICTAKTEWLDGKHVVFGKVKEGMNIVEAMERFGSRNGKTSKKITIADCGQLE
Chain of K-Ras G13C (P01116-2 other isoform, or with tags, fused parts or gaps G13C): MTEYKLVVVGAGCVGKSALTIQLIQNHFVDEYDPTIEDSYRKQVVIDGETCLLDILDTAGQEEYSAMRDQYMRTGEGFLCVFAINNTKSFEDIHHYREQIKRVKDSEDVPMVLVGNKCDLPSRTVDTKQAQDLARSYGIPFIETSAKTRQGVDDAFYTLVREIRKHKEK
Chain of K-Ras G13C (P62937 whole entry): as the sequence (P62937 whole entry) above
Chain of K-Ras G12C (P01116-2 other isoform, or with tags, fused parts or gaps G12C): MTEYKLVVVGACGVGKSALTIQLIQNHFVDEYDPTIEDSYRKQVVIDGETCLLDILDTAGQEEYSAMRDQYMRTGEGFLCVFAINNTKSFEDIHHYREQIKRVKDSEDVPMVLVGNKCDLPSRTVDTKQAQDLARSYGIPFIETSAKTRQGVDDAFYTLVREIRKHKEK
Chain of K-Ras G12C (P62937 whole entry): as the sequence (P62937 whole entry) above
Chain of NRAS WT (P01111 whole entry): as the sequence (P01111 whole entry Q61R) above, with R61Q counted along it
Chain of NRAS WT (P62937 whole entry): as the sequence (P62937 whole entry) above
Chain of KRAS Q61H (P01116-2 other isoform, or with tags, fused parts or gaps Q61H): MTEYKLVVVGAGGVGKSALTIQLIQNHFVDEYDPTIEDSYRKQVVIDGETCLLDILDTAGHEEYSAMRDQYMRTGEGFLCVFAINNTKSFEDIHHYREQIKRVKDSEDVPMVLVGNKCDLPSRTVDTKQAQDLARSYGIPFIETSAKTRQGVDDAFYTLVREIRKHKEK
Chain of KRAS Q61H (P62937 whole entry): as the sequence (P62937 whole entry) above

SMILES: C=CC(=O)N(C)[C@@H]1C[C@H](C)N(C(=O)N(C)[C@H](C(=O)N[C@H]2Cc3nc(cs3)-c3ccc4c(c3)c(c(-c3cccnc3[C@H](C)OC)n4CC)CC(C)(C)COC(=O)[C@@H]3CCCN(N3)C2=O)C(C)C)C1 (atropisomer, axis not shown) [Example A633]
- IC50 (NRAS WT): 10 to 100 nM
- EC50 [1]: < 5000 nM
- IC50 (NRAS Q61R): 10 to 100 nM
- IC50 (K-Ras G12C): 100 to 1000 nM
- IC50 (K-Ras G13C): 100 to 1000 nM
- IC50 (KRAS Q61H): 10 to 100 nM

SMILES: C=CC(=O)N(C)[C@@H]1C[C@@H](C)N(C(=O)N(C)[C@H](C(=O)N[C@H]2Cc3nc(cs3)-c3ccc4c(c3)c(c(-c3cccnc3[C@H](C)OC)n4CC)CC(C)(C)COC(=O)[C@@H]3CCCN(N3)C2=O)C(C)C)C1 (atropisomer, axis not shown) [Example A634]
- IC50 (NRAS WT): 100 to 1000 nM
- EC50 [1]: < 5000 nM
- IC50 (NRAS Q61R): 100 to 1000 nM
- IC50 (K-Ras G12C): 10 to 100 nM
- IC50 (K-Ras G13C): 100 to 1000 nM
- IC50 (KRAS Q61H): 100 to 1000 nM

SMILES: C=CC(=O)N1CCCC2(CCN(C(=O)N(C)[C@H](C(=O)N[C@H]3Cc4nc(cs4)-c4ccc5c(c4)c(c(-c4cccnc4[C@H](C)OC)n5CC)CC(C)(C)COC(=O)[C@@H]4CCCN(N4)C3=O)C(C)C)CC2)C1 (atropisomer, axis not shown) [Example A635]
- IC50 (NRAS WT): 100 to 1000 nM
- EC50 [1]: < 5000 nM
- IC50 (NRAS Q61R): 100 to 1000 nM
- IC50 (K-Ras G12C): 100 to 1000 nM
- IC50 (K-Ras G13C): 100 to 1000 nM
- IC50 (KRAS Q61H): 100 to 1000 nM

SMILES: C=CC(=O)N1CC2(CCN2C(=O)N(C)[C@H](C(=O)N[C@H]2Cc3cccc(n3)-c3ccc4c(c3)c(c(-c3cccnc3[C@H](C)OC)n4CC)CC(C)(C)COC(=O)[C@@H]3CCCN(N3)C2=O)C(C)C)C1 (atropisomer, axis not shown) [Example A636]
- IC50 (NRAS WT): 100 to 1000 nM
- EC50 [1]: < 5000 nM
- IC50 (NRAS Q61R): 100 to 1000 nM
- IC50 (K-Ras G12C): 10 to 100 nM
- IC50 (K-Ras G13C): 100 to 1000 nM
- IC50 (KRAS Q61H): 100 to 1000 nM

SMILES: CCn1c(-c2cccnc2[C@H](C)OC)c2c3cc(ccc31)-c1csc(n1)C[C@H](NC(=O)C[C@@H](C)OC1CN(C(=O)C#CC(C)(C)N(C)C)C1)C(=O)N1CCC[C@H](N1)C(=O)OCC(C)(C)C2 (atropisomer, axis not shown) [Example A638]
- IC50 (NRAS WT): 1000 to 10000 nM
- EC50 [1]: < 5000 nM
- IC50 (NRAS Q61R): 1000 to 10000 nM
- IC50 (K-Ras G12C): < 10 nM
- IC50 (K-Ras G13C): 1000 to 10000 nM
- IC50 (KRAS Q61H): 1000 to 10000 nM

SMILES: C=CC(=O)N1CC[C@H](C(=O)N(C)[C@H](C(=O)N[C@H]2Cc3cccc(c3)-c3ccc4c(c3)c(c(-c3cccnc3[C@H](C)OC)n4CC)CC(C)(C)COC(=O)[C@@H]3CCCN(N3)C2=O)[C@@H](C)C(F)(F)F)C1 (atropisomer, axis not shown) [Example A640]
- IC50 (NRAS WT): 1000 to 10000 nM
- EC50 [1]: < 5000 nM
- IC50 (NRAS Q61R): 1000 to 10000 nM
- IC50 (K-Ras G12C): 100 to 1000 nM
- IC50 (K-Ras G13C): 100 to 1000 nM
- IC50 (KRAS Q61H): 100 to 1000 nM

SMILES: CCn1c(-c2cccnc2[C@H](C)OC)c2c3cc(ccc31)N1CCO[C@@H](C[C@H](NC(=O)[C@H](C(C)C)N(C)C(=O)C3(F)CCN(C(=O)/C=C/CN(C)C)CC3)C(=O)N3CCC[C@H](N3)C(=O)OCC(C)(C)C2)C1 (atropisomer, axis not shown) [Example A645]
- IC50 (NRAS WT): 1000 to 10000 nM
- EC50 [1]: < 5000 nM
- IC50 (NRAS Q61R): > 10000 nM
- IC50 (K-Ras G12C): 10 to 100 nM
- IC50 (K-Ras G13C): 100 to 1000 nM
- IC50 (KRAS Q61H): 1000 to 10000 nM

SMILES: CC#CC(=O)N1CC2(CCN2C(=O)N(C)[C@H](C(=O)N[C@H]2Cc3nc(cs3)-c3ccc4c(c3)c(c(-c3cccnc3[C@H](C)OC)n4CC)CC(C)(C)COC(=O)[C@@H]3CCCN(N3)C2=O)C(C)C)C1 (atropisomer, axis not shown) [Example A655]
- IC50 (NRAS WT): 100 to 1000 nM
- EC50 [1]: < 5000 nM
- IC50 (NRAS Q61R): 10 to 100 nM
- IC50 (K-Ras G12C): 100 to 1000 nM
- IC50 (K-Ras G13C): 100 to 1000 nM
- IC50 (KRAS Q61H): 10 to 100 nM

SMILES: C=CC(=O)N1CC[C@]2(CCN2C(=O)N(C)[C@H](C(=O)N[C@H]2Cc3nc(cs3)-c3ccc4c(c3)c(c(-c3cccnc3[C@H](C)OC)n4CC)CC(C)(C)COC(=O)[C@@H]3CCCN(N3)C2=O)C(C)C)C1 (atropisomer, axis not shown) [Example A662]
- IC50 (NRAS WT): 100 to 1000 nM
- EC50 [1]: < 5000 nM
- IC50 (NRAS Q61R): 100 to 1000 nM
- IC50 (K-Ras G12C): 10 to 100 nM
- IC50 (K-Ras G13C): 100 to 1000 nM
- IC50 (KRAS Q61H): 10 to 100 nM
